What was measured:
[1] = molecular target: T1, VSGsur (Variant Surface Glycoprotein VSGsur) (Trypanosoma brucei, UniProt A0A291L8F4); assay: ITC and […] Å co-crystal structure; assay type: binding
T1 sequence (A0A291L8F4 30-475): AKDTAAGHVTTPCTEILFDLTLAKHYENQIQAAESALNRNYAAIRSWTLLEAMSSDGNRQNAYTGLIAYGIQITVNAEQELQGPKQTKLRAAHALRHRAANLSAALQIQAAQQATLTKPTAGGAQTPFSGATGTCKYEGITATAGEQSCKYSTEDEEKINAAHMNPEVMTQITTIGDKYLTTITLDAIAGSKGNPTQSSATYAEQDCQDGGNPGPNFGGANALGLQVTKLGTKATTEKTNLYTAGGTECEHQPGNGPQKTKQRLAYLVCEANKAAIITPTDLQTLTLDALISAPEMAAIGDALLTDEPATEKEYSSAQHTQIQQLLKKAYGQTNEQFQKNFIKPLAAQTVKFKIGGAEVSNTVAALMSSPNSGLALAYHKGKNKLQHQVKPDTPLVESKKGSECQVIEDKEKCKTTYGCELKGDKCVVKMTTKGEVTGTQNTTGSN

[2] = molecular target: Variant Surface Glycoprotein VSG13, N-terminal domain (T. brucei brucei Lister 427); assay: crystal structure
[3] = molecular target: T2, VSGsur (Variant Surface Glycoprotein VSGsur) (Trypanosoma brucei, UniProt A0A291L8F4); assay: crystal structure; assay type: binding
T2 sequence (A0A291L8F4 30-408): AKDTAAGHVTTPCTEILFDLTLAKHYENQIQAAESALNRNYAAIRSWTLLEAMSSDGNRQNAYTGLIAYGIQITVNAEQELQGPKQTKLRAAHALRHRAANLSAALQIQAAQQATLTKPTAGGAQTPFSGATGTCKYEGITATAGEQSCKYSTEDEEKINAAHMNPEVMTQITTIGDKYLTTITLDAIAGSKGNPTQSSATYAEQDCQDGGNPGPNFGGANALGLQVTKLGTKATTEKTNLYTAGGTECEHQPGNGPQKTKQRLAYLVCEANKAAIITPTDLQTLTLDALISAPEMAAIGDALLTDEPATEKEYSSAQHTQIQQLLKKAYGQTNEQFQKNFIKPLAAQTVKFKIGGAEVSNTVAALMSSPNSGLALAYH

[4] = molecular target: Variant Surface Glycoprotein VSGsur, N-terminal domain (T. brucei rhodesiense); assay: crystal structure

With `Cc1ccc(C(=O)Nc2ccc(S(=O)(=O)O)c3cc(S(=O)(=O)O)cc(S(=O)(=O)O)c23)cc1NC(=O)c1cccc(NC(=O)Nc2cccc(C(=O)Nc3cc(C(=O)Nc4ccc(S(=O)(=O)O)c5cc(S(=O)(=O)O)cc(S(=O)(=O)O)c45)ccc3C)c2)c1` [suramin] as the compound, how does the Kd [1] read?
The Kd was 0.234 ± 0.028 µM.

How did the stoichiometry N [2] turn out when “Variant Surface Glycoprotein VSG13, N-terminal domain (domain or fragment)” was run?
The stoichiometry N was 2.

`Nc1c(I)c(C(=O)O)c(I)c(C(=O)O)c1I` [I3C, 5-amino-2,4,6-triiodoisophthalic acid] was tested. Which “crystal structure (50 mM overnight soak, phasing compound)” value [3] did it give?
Its value is “occupies the same position as the suramin benzene groups, stacking similarly with H122”.

With “Variant Surface Glycoprotein VSGsur, N-terminal domain (domain or fragment)” as the compound, how does the stoichiometry N [4] read?
Its stoichiometry N is 2.

— paper PMC7116837 (Nature microbiology, 2021)
